# Data taken from EP2977042B1, “OLOPATADINE FORMULATIONS FOR TOPICAL NASAL ADMINISTRATION” (Novartis AG, priority 2007, dated 2008).
# Where a name gives a salt, the structure may show the parent alone.
# Experiments:
# Assay type in all cases: physicochemical
# [1] = Dissolution rate of olopatadine hydrochloride in a nasal formulation containing 0.01% EDTA and 0.01% BAC, effect of NaCl and Na2HPO4 concentrations
# Method: The effect of NaCl and Na2HPO4 concentrations on the dissolution rate of olopatadine hydrochloride in a nasal formulation containing 0.01% EDTA and 0.01% BAC was determined. The aqueous solubility of olopatadine HCl decreases with increasing concentration of NaCl. However, increasing phosphate buffer correlates with increased aqueous solubility of olopatadine HCl in the presence of NaCl.
# [2] = Visual observation of composition clarity during compounding
# Method: An exemplary compounding procedure for the nasal composition shown in Table 1 is described as below. • 1. Tare a suitable compounding vessel with magnetic stir bar. Add approximately 80% of the batch weight of purified water. • 2. While stirring, add dibasic sodium phosphate (anhydrous), sodium chloride, edetate disodium, benzalkonium chloride and olopatadine HCl. • 3. Add equivalent to approximately 0.55 g, 6N hydrochloric acid per 100 ml batch. • 4. Allow adequate time between each addition for dissolution of each ingredient • 5. Add purified water to approximately 90% of final batch weight. • 6. Measure pH and adjust, if necessary, to 3.7 with 6N (and/or 1N) hydrochloric acid and 1N sodium hydroxide. • 7. Adjust to final batch weight with purified water (QS). • 8. Measure final pH. • 9. Filter through 0.2 µm filtration membrane. The two compositions shown in Table 2 below were prepared using the procedure described in Example 1 and visual observations of the compositions clarity were made at different points during the compounding procedure. […] In each case, visual observations relating to the composition's clarity were recorded. […] Visual observations of the clarity of each composition were recorded as each composition was prepared.
# [3] = Acid-base equilibrium (pKa values) of olopatadine
# Excerpt: Olopatadine has both a carboxylic functional group (pKa1 = 4.18) and a tertiary amino group (pKa2 = 9.79). It exists in different ionic forms depending upon the pH of the solution. Olopatadine exists predominantly as a zwitterion in the pH range between the two pKa values with a negatively-charged carboxylic group and a positively-charged tertiary amino group. The isoelectric point of the olopatadine zwitterion is at pH 6.99. At a pH lower than pKa1, cationic olopatadine (with ionized tertiary amino group) is dominant. At a pH higher than pKa2, anionic olopatadine (with ionized carboxylic group) is dominant.
# [4] = Dissolution rate of olopatadine hydrochloride in water, effect of NaCl and Na2HPO4
# Method: The effect of NaCl on the dissolution rate of olopatadine hydrochloride in water was determined.
Structure (SMILES),aqueous solubility ([1]; with increasing concentration of NaCl),"aqueous solubility ([1]; with increasing phosphate buffer, in the presence of NaCl)",solubility of 0.665% olopatadine hydrochloride in the tested nasal vehicle ([2]; without a phosphate salt),"dissolution of 0.665% olopatadine hydrochloride in water ([2]; without phosphate buffer, in the presence of 0.7% NaCl, pH as low as 3.6, compounding procedure of Example 1)",pKa1 ([3]; carboxylic functional group),isoelectric point of the olopatadine zwitterion ([3]; given as pH),pKa2 ([3]; tertiary amino group),effect of NaCl on the rate of dissolution ([4]; in water),effect of addition of Na2HPO4 on dissolution ([4]; in water with NaCl),"time for complete dissolution of 0.6% olopatadine solution ([4]; in water with NaCl, with Na2HPO4)","time for complete dissolution of 0.6% olopatadine solution ([4]; in water with NaCl, without Na2HPO4, assuming the entire amount would eventually dissolve)"
"CN(C)CC/C=C1/c2ccccc2COc2ccc(CC(=O)O)cc21 [olopatadine HCl, (Z)-11-(3-dimethylaminopropylidene)-6,11-dihydro-dibenz-[b,e]oxepin-2-acetic acid]",decreases,increased,not soluble,did not completely dissolve,–,–,–,–,–,–,–
"CN(C)CC/C=C1/c2ccccc2COc2ccc(CC(=O)O)cc21 [olopatadine, Z-11-(3-dimethylaminopropylidene)-6, 11-dihydrodibenz[b,e]oxepine-2-acetic acid]",–,–,–,–,4.18,6.99,9.79,significant reduction,dramatically improved,less than one,at least several hours
